Results: patent US9487510B2, “Substituted heterocyclic acetamides as kappa opioid receptor (KOR) agonists” (Dr. Reddy's Laboratories Ltd., priority 2012, dated 2016)
pEC50: −log10 of the molar value.

How the values were obtained:
human KOR receptor = human KOR receptor (Homo sapiens, UniProt P41145); experiment: IP-One HTRF assay, potency of KOR agonists, dose-response in transiently transfected COS-7 cells; format: cell-based
Chain of human KOR receptor (P41145 whole entry): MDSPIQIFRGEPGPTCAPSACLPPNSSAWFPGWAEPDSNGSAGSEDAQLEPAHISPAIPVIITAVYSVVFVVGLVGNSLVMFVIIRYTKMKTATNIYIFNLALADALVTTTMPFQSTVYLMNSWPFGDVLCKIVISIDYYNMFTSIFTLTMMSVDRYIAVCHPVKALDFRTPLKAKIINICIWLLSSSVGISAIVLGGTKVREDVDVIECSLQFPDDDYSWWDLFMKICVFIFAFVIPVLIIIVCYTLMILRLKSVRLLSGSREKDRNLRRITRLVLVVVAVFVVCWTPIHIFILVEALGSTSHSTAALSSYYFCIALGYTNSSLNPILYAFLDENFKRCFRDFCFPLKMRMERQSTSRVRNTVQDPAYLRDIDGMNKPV

Row | SMILES | pEC50 (human KOR receptor) | melting point [°C]
1 | CN(C(=O)Cc1ccc2oc(=O)[nH]c2c1)[C@H](CN1CCC(O)C1)c1cccc(OCC(=O)OC(C)(C)C)c1 (stereo in doubt) [Example 77, Tert-butyl 2-(3-((S)-2-((R)-3-hydroxypyrrolidin-1-yl)-1-(N-methyl-2-(2-oxo-2,3-dihydrobenzo[d]oxazol-5-yl)acetamido)ethyl)phenoxy)acetate] | ≥ 7.30 | 124 to 125
2 | CN(C(=O)Cc1ccc2oc(=O)n(Cc3ccccc3)c2c1)[C@H](CN1CCCC1)c1cccc(O)c1 [Example 89, (S)-2-(3-benzyl-2-oxo-2,3-dihydrobenzo[d]oxazol-5-yl)-N-(1-(3-hydroxyphenyl)-2-(pyrrolidin-1-yl)ethyl)-N-methylacetamide] | 6.00 to 7.00 | 165 to 167
3 | O=C(Cc1ccc2oc(=O)[nH]c2c1)N[C@H](CN1CCCC1)c1cccc(O)c1 [Example 84, (S)-N-(1-(3-hydroxyphenyl)-2-(pyrrolidin-1-yl)ethyl)-2-(2-oxo-2,3-dihydrobenzo[d]oxazol-5-yl)acetamide] | ≥ 7.30 | 140 to 142
4 | N#Cc1cccc(Cn2c(=O)oc3ccc(CC(=O)N[C@H](CN4CC[C@H](O)C4)c4ccccc4)cc32)c1 [Example 72, 2-(3-(3-cyanobenzyl)-2-oxo-2,3-dihydrobenzo[d]oxazol-5-yl)-N-((S)-2-((S)-3-hydroxypyrrolidin-1-yl)-1-phenylethyl)acetamide] | ≥ 7.30 | 65 to 68
5 | CN(C(=O)Cc1ccc2c(c1)NS(=O)(=O)C2)[C@H](CN1CC[C@H](O)C1)c1ccccc1 [Example 136, 2-(2,2-dioxido-1,3-dihydrobenzo[c]isothiazol-6-yl)-N-((S)-2-((S)-3-hydroxypyrrolidin-1-yl)-1-phenylethyl)-N-methylacetamide] | ≥ 7.30 | 232 to 234
6 | O=C1Cc2ccc(CC(=O)N[C@H](CN3CC[C@H](O)C3)C3CCCCC3)cc2N1 [Example 69, N-((S)-1-cyclohexyl-2-((S)-3-hydroxypyrrolidin-1-yl)ethyl)-2-(2-oxoindolin-6-yl)acetamide] | ≥ 7.30 | 132 to 133
7 | N#Cc1ccc(Cn2c(=O)oc3ccc(CC(=O)N[C@H](CN4CC[C@H](O)C4)c4ccccc4)cc32)cc1 [Example 59, 2-(3-(4-cyanobenzyl)-2-oxo-2,3-dihydrobenzo[d]oxazol-5-yl)-N-((S)-2-((S)-3-hydroxypyrrolidin-1-yl)-1-phenylethyl)acetamide] | ≥ 7.30 | 194
8 | CN(C(=O)Cc1ccc2oc(=O)n(Cc3ccccc3)c2c1)[C@H](CN1CCCC1)c1cccc(OCC(=O)OC(C)(C)C)c1 [Example 68, (S)-tert-butyl-2-(3-(1-(2-(3-benzyl-2-oxo-2,3-dihydrobenzo[d]oxazol-5-yl)-N-methylacetamido)-2-(pyrrolidin-1-yl)ethyl)phenoxy)acetate] | ≥ 7.30 | 111 to 113
9 | CN(C(=O)Cc1ccc2oc(=O)[nH]c2c1)[C@H](CN1CCC(O)C1)c1cccc(OCC(=O)O)c1.Cl (stereo in doubt) [Example 96, 2-(3-((S)-2-((R)-3-hydroxypyrrolidin-1-yl)-1-(N-methyl-2-(2-oxo-2,3-dihydrobenzo[d]oxazol-5-yl)acetamido)ethyl)phenoxy)acetic acid] | ≥ 7.30 | 95 to 96
10 | Cl.O=C(O)COc1cccc(C(CN2CCCC2)NC(=O)Cc2ccc3c(c2)NC(=O)C3)c1 (stereo not shown) [Example 92, 2-(3-(1-(2-(2-oxoindolin-6-yl)acetamido)-2-(pyrrolidin-1-yl)ethyl)phenoxy)acetic acid] | ≥ 7.30 | 104 to 106
11 | O=C(Cc1ccc2oc(=O)[nH]c2c1)N[C@H](CN1CC[C@H](O)C1)C1CCCCC1 [Example 67, N-((S)-1-cyclohexyl-2-((S)-3-hydroxypyrrolidin-1-yl)ethyl)-2-(2-oxo-2,3-dihydrobenzo[d]oxazol-5-yl)acetamide] | ≥ 7.30 | 173 to 174
12 | O=C(Cc1ccc2oc(=O)[nH]c2c1)N[C@H](CN1CCCC1)c1ccccc1 [Example 56, (S)-2-(2-oxo-2,3-dihydrobenzo[d]oxazol-5-yl)-N-(1-phenyl-2-(pyrrolidin-1-yl)ethyl) acetamide] | ≥ 7.30 | 129 to 130
13 | CN(C(=O)Cc1ccc2oc(=O)n(Cc3cccc(-c4nn[nH]n4)c3)c2c1)[C@H](CN1CCC(O)C1)c1ccccc1 (stereo in doubt) [Example 103, 2-(3-(3-(2H-tetrazol-5-yl)benzyl)-2-oxo-2,3-dihydrobenzo[d]oxazol-5-yl)-N-((S)-2-((S)-3-hydroxypyrrolidin-1-yl)-1-phenylethyl)-N-methylacetamide] | ≥ 7.30 | 123 to 125
14 | CN(C(=O)Cc1ccc2oc(=O)n(C)c2c1)[C@H](CN1CCC(O)C1)c1cccc(-c2nn[nH]n2)c1 (stereo in doubt) [Example 107, N-((S)-1-(3-(2H-tetrazol-5-yl)phenyl)-2-((S)-3-hydroxypyrrolidin-1-yl)ethyl)-N-methyl-2-(3-methyl-2-oxo-2,3-dihydrobenzo[d]oxazol-5-yl)acetamide] | ≥ 7.30 | 130 to 132
15 | CN(C(=O)Cc1ccc2oc(=O)n(Cc3cccc(C(N)=O)c3)c2c1)[C@H](CN1CC[C@H](O)C1)c1ccccc1 [Example 88, 3-((5-(2-(((S)-2-((S)-3-hydroxypyrrolidin-1-yl)-1-phenylethyl)(methyl)amino)-2-oxoethyl)-2-oxobenzo[d]oxazol-3(2H)-yl)methyl)benzamide] | ≥ 7.30 | 181 to 183
16 | N#Cc1cccc(Cn2c(=O)oc3ccc(CC(=O)N[C@H](CN4CCCC4)c4ccccc4)cc32)c1 [Example 46, (S)-2-(3-(3-cyanobenzyl)-2-oxo-2,3-dihydrobenzo[d]oxazol-5-yl)-N-(1-phenyl-2-(pyrrolidin-1-yl)ethyl)acetamide] | ≥ 7.30 | 109 to 110
17 | CN(C(=O)Cc1ccc2oc(=O)[nH]c2c1)[C@H](CN1CCCC1)c1cccc(-c2nn[nH]n2)c1 [Example 93, (S)-N-(1-(3-(2H-tetrazol-5-yl)phenyl)-2-(pyrrolidin-1-yl)ethyl)-N-methyl-2-(2-oxo-2,3-dihydrobenzo[d]oxazol-5-yl)acetamide] | ≥ 7.30 | 240 to 242
18 | NC(=O)c1cccc(Cn2c(=O)oc3ccc(CC(=O)N[C@H](CN4CCCC4)c4ccccc4)cc32)c1 [Example 91, (S)-3-((2-oxo-5-(2-oxo-2-(1-phenyl-2-(pyrrolidin-1-yl)ethylamino)ethyl)benzo[d]oxazol-3(2H)-yl)methyl)benzamide] | ≥ 7.30 | 171 to 172
19 | O=C1Cc2ccc(CC(=O)N[C@H](CN3CC[C@H](O)C3)c3ccccc3)cc2N1 | – | 207 to 209
20 | O=C(Cc1ccc2ccc(=O)[nH]c2c1)N[C@H](CN1CC[C@H](O)C1)c1ccccc1 | – | 174 to 176
21 | CN(C(=O)Cc1ccc2oc(=O)[nH]c2c1)[C@H](CN1CCC(O)C1)c1cccc(-c2nn[nH]n2)c1 (stereo in doubt) [Example 99, N-((S)-1-(3-(2H-tetrazol-5-yl)phenyl)-2-((S)-3-hydroxypyrrolidin-1-yl)ethyl)-N-methyl-2-(2-oxo-2,3-dihydrobenzo[d]oxazol-5-yl)acetamide] | ≥ 7.30 | 228 to 230
22 | O=C(Cc1ccc2[nH]c(=O)ccc2c1)N[C@H](CN1CCC(O)C1)c1ccccc1 (stereo in doubt) [Example 51, N-((S)-2-((R)-3-hydroxypyrrolidin-1-yl)-1-phenylethyl)-2-(2-oxo-1,2-dihydroquinolin-6-yl)acetamide] | 6.00 to 7.00 | 196 to 198
23 | Cn1c(=O)oc2ccc(CC(=O)N[C@H](CN3CCCC3)c3ccccc3)cc21 [Example 61, (S)-2-(3-methyl-2-oxo-2,3-dihydrobenzo[d]oxazol-5-yl)-N-(1-phenyl-2-(pyrrolidin-1-yl)ethyl)acetamide] | 7.00 to 7.29 | 105 to 107
24 | CN(C(=O)Cc1ccc2oc(=O)[nH]c2c1)[C@H](CN1CC[C@H](O)C1)C1CCCCC1 [Example 70, N-((S)-1-cyclohexyl-2-((S)-3-hydroxypyrrolidin-1-yl)ethyl)-N-methyl-2-(2-oxo-2,3dihydrobenzo[d]oxazol-5-yl)acetamide] | ≥ 7.30 | 130 to 131
25 | O=C(Cc1ccc2oc(=O)n(Cc3ccccc3)c2c1)N[C@H](CN1CCCC1)c1cccc(O)c1 [Example 20, (S)-2-(3-benzyl-2-oxo-2,3-dihydrobenzo [d]oxazol-5-yl)-N-(1-(3-hydroxyphenyl)-2-(pyrrolidin-1-yl)ethyl)acetamide] | ≥ 7.30 | 104 to 106
26 | CN(C(=O)Cc1ccc2c(c1)NC(=O)C2)[C@H](CN1CC[C@H](F)C1)c1cccc(-c2nn[nH]n2)c1 [Example 113, N-((S)-1-(3-(2H-tetrazol-5-yl)phenyl)-2-((S)-3-fluoropyrrolidin-1-yl)ethyl)-N-methyl-2-(2-oxoindolin-6-yl)acetamide] | ≥ 7.30 | 175 to 177
27 | CC(C)(C)OC(=O)COc1cccc([C@@H](CN2CCCC2)NC(=O)Cc2ccc3oc(=O)n(Cc4ccccc4)c3c2)c1 [Example 63, (S)-t-butyl-2-(3-(1-(2-(3-benzyl-2-oxo-2,3-dihydrobenzo[d]oxazol-5-yl)acetamido)-2-(pyrrolidin-1-yl)ethyl)phenoxy)acetate] | ≥ 7.30 | 68 to 70
28 | CN(C(=O)Cc1ccc2ccc(=O)[nH]c2c1)[C@H](CN1CCCC1)c1ccccc1 [Example 49, (S)-N-methyl-2-(2-oxo-1,2-dihydroquinolin-7-yl)-N-(1-phenyl-2-(pyrrolidin-1-yl)ethyl)acetamide] | ≤ 6.00 | 170 to 172
29 | CN(C(=O)Cc1ccc2c(c1)NC(=O)CS2(=O)=O)[C@H](CN1CC[C@H](O)C1)C1CCCCC1 [Example 125, N-((S)-1-cyclohexyl-2-((S)-3-hydroxypyrrolidin-1-yl)ethyl)-2-(1,1-dioxido-3-oxo-3,4-dihydro-2H-benzo [b][1,4]thiazin-6-yl)-N-methylacetamide] | ≥ 7.30 | –
